The source of these data is US7183369B1, “Injectible bodily prosthetics employing methacrylic copolymer gels” (Iowa State University Research Foundation, Inc., priority 2003, dated 2007).

For the data set, the system named is NIH/3T3 mouse fibroblasts. Nature of the data set: Elution cytotoxicity test. It counts as cell-based. As to the method:
Elution tests were performed on one sample of the pentablock material to assess the cytotoxic properties of the pentablock copolymers. Approximately 30 mg of the polymers to be tested were dissolved in 100 ml of low-glucose Dulbecco's modified eagle medium (DMEM, Sigma) with 10% fetal bovine serum (FBS, Sigma), 10 μg/ml insulin (Sigma), 10 units/ml penicillin/streptomycin (Sigma), and 100 μg/ml L-ascorbic acid (Sigma). This solution was diluted to achieve the desired polymer concentration for all tests.
NIH/3T3 mouse fibroblasts were grown in polystyrene flasks until reaching confluence at 150 cells/mm. The growth media was removed from the flasks and replaced with one of the following: DMEM (negative control), DMEM with phenol (positive control), DMEM with the pentablock material. The concentrations of the pentablock material and phenol were 3 mg/L, 0.3 mg/L and 0.03 mg/L.
After 24 hours of incubation in a humidified incubator with 5% CO2 at 37° C. the samples were removed and the media was replaced with Karnovsky's fixative (2.5% glutaraldehyde, 2.0% paraformaldehyde, 0.1M sodium cacodylate) for 12 hours. The samples were then stained with a 20% crystal violet dye (CVD) solution in ethanol for 6 hours followed by dehydration with ethanol. […]

Turning to “PDEAEM-b-PEO-b-PPO-b-PEO-b-PDEAEM [pentablock copolymer]”, the “cell adhesion to polystyrene substrate and confluence after test period” value was “good adhesion to the polystyrene cell culture substrate and the cells remained confluent”.
